Data as given in PMC10216263, “Favorable Preclinical Pharmacological Profile of a Novel Antimalarial Pyrrolizidinylmethyl Derivative of 4-amino-7-chloroquinoline with Potent In Vitro and In Vivo Activities” (Biomolecules, 2023).
Like-named read-outs stand apart in the source and are kept apart here.

How the values were obtained:
P. falciparum W2 (CQ-R) = system: P. falciparum W2 (CQ-R); parameters: method as in PMID 18538567; conditions: 72 h incubation, pLDH method, mean of 3 experiments; cited from earlier work
P. falciparum D10 (CQ-S) = system: P. falciparum D10 (CQ-S); parameters: method as in PMID 18538567; conditions: 72 h incubation, pLDH method, mean of 3 experiments; cited from earlier work
[1] = Chemical stability in incubation medium; type: physicochemical; conditions: 90 min at 37 °C, Leibovitz L-15 medium
Experimental: An automatic liquid handling system (Multiprobe II EX, Packard) was used for sampling. At 0, 10, 20, 30, 60 and 90 min, […] aliquots of the incubates were taken and added with […] of ice-cold ACN and […] of 1 µM warfarin in ACN (internal standard), and samples centrifuged at 2000 rpm for 20 min. The analysis of supernatant was conducted using LC-MS/MS. MG3 was incubated in the medium under the same conditions to evaluate the chemical stability; 7-ethoxycoumarin (7-ETC) 1 µM and 7-hydroxycoumarin (7-HC) 30 µM were utilized as positive controls for Phase I and Phase II activities. […] Half-life and CLint were determined from the concentration (counts) remaining at the different sampling points using the LC-MS/MS method. The slope was calculated using linear regression analysis of the curve (natural logarithmic area of the compound remaining against the time) and converted into the half-life (t1/2) and CLint expressed as µL/min/million cells and mL/min/kg, respectively.

P. vivax field isolates = experiment: Chemosensitivity assay on field isolates; type: cell-based
Experimental: (§1) The 10 P. vivax and 10 P. falciparum isolates used in this study were obtained from Mae Sod District, Tak Province, Thailand. […] Isolates were collected in 5 mL lithium-heparinized tubes and sent to the laboratory within 5–6 h.

[2] = system: P. falciparum field isolates; experiment: Chemosensitivity assay on field isolates; type: cell-based
Experimental: as §1

[3] = Tissue distribution in rat; type: in vivo, female Sprague Dawley rats; conditions: single oral 120 mg/kg
Experimental: Female Sprague Dawley rats (Charles River, Italy) (2–4/time points) were orally administered with a single dose of 120 mg/kg of MG3 at a constant dose volume of 10 mL/kg; dose and gender were selected based on previous toxicological studies. Two female rats were included as untreated controls. Plasma samples and tissues, i.e., adrenal glands, hearth, kidney, liver, lung, lymph nodes, spleen, ovaries, thymus, and skeletal muscle were collected at 4, 24, 48, 72 and 96 h after administration by animals killed by exsanguination under sodium thiopental anesthesia. Blood was put in heparinized plastic tubes kept on ice-water bath, then centrifuged (10 min, 1200 rpm, +4 °C). One aliquot of about 100 µL of plasma was stored at –80 °C until analysis. Samples of selected organs/tissues were collected, put in plastic cassettes and frozen over liquid nitrogen. Then, organs were thawed out, weighted, and sliced. Homogenates were prepared with ultrasonication on ice in Dulbecco buffer (10 μL/mg of tissue). The addition of 400 μL of methanol to 10 μL of homogenate in a 96-well plate allowed the precipitation of proteins. After capping and vortex mixing, the plate was centrifuged for 15 min at 3700 rpm at 6 °C, and an aliquot of 360 μL of supernatant transferred to a new plate and dried down under nitrogen stream (40 °C). The extract was reconstituted in 150 μL of 10 mM ammonium formate pH 3.5: methanol (90:10, v/v) and analyzed using the LC-MS-MS method, as described in Pharmacokinetic studies in rat paragraph. 1 ng/mL and 10 ng/g were the lower limits of quantitation for plasma and tissue, respectively.

7-day oral DRF in dog = type: in vivo, Beagle dog; conditions: dogs, 15 and 30 mg/kg/day oral, 7 days
Experimental: (§2) Seven days oral DRF in rats and dog, and five days oral DRF in Non-Human Primates (NHP) were performed using Sprague Dawley rats (n = 3/time point) of both sexes, one male and one female dog Beagle (Marshall/Green Hill) and one male and one female monkeys/Cynomolgus (Noveprim Ltd., Mahebourg Mauritius,). MG3 was administered as oral suspension in 0.5% methocel in water (400 cP viscosity) at the following doses: 30, 60 and 120 mg/kg/day for 7 days (rat), 15 and 30 mg/kg/days for 7 days (dog) and 25, 50 and 75 mg/kg/day (NHP). No Observed Effects Levels (NOEL) were determined. Mortality, behavior, and general conditions were observed daily. Body weight was recorded pre-test, and on Days 1, 4 and 7. Food consumption was recorded from Days 1 to 4 and 4 to 7. Hematological and clinical chemistry examinations were performed on Day 8. All animals were sacrificed under anesthesia at the end of the treatment period on Day 8 of study. Post-mortem examinations included necropsy, collection, and histological examination performed of selected organs/tissues.

[4] = system: Salmonella typhimurium TA100; experiment: Bacterial Reverse Mutation Assay; conditions: TA 100, with metabolic activation
Experimental: using the preincubation method (30 min, 37°C) with and without phenobarbital-5,6-benzoflavone induced
MG3 was dissolved in distilled water (H2O) at
the maximum concentration of 40 mg/mL and tested in a preliminary range-finding test in all strains of
metabolic activation to determine the toxicity of the compound.

[5] = Oral DRF and systemic exposure in NHP; type: in vivo, Cynomolgus monkeys; conditions: for AUC(0-t) / Cmax / Tmax: po, 50 mg/kg/day; for half-life: plasma, Day 5, 50 mg/kg/day oral, read-out: t1/2, z (converted)
Experimental: as §2

[6] = system: P. falciparum TM90C2A (CQ-R); experiment: In vitro antimalarial activity, [3H]-hypoxanthine incorporation (LSHTM); type: cell-based; conditions: Plasmodium falciparum, 72 h, [3H]-hypoxanthine incorporation, mean of 3 experiments, read-out: P. falciparum IC50 nM, TM90C2A (CQ-R)
[7] = system: beta-hematin (malaria pigment) formation; parameters: method as in PMID 18538567; conditions: in vitro BHIA; cited from earlier work
[8] = both sexes, cynomolgus monkey, in vivo
[9] = female, cynomolgus monkey, in vivo
[10] = male, cynomolgus monkey, in vivo

Clc1ccc2c(NCC34CCCN3CCC4)ccnc2c1 [MG3, 7-Chloro-N-((hexahydro-1H-pyrrolizin-7a-yl)methyl)quinolin-4-amine]
IC50 (P. falciparum W2 (CQ-R)): 28.9 nM
IC50 (P. falciparum D10 (CQ-S)): 30.6 nM
chemical stability in incubation medium alone [1]: did not show any degradation
IC50 lower than that of CQ (P. vivax field isolates; P. vivax isolates): 40%
IC50 (P. vivax field isolates; Plasmodium vivax, read-out: P. vivax IC50 nM, Field Isolates): 50.3 nM
IC50 ([2]; Plasmodium falciparum, read-out: P. falciparum IC50 nM, Field Isolates, mean of 10 field isolates, Thai Burmese Border): < 15 nM
IC50 ([2]; read-out: P. falciparum IC50 nM, Field Isolates, mean of 10 field isolates, Thai Burmese Border): 20.9 nM
tissues with the highest concentration [3]: lungs and ovaries
concentration in tissues versus plasma ([3]; all time points 4–96 h): higher than in plasma
detected in all the analyzed tissues up to ([3]; post dose): 96 h
toxicity finding (7-day oral DRF in dog): associated with mortality one week after last treatment due to acute renal failure
fold increase value (ratio treated/solvent revertant numbers) ([4]; I° Exp., 62.5 µg/plate): 0.6
fold increase value (ratio treated/solvent revertant numbers) ([4]; I° Exp., 125 µg/plate): 0.6
fold increase value (ratio treated/solvent revertant numbers) ([4]; I° Exp., 250 µg/plate): 0.8
fold increase value (ratio treated/solvent revertant numbers) ([4]; I° Exp., 500 µg/plate): 0.8
fold increase value (ratio treated/solvent revertant numbers) ([4]; I° Exp., 1000 µg/plate): 0.8
fold increase value (ratio treated/solvent revertant numbers) ([4]; Range finding, 1.95 µg/plate): 1.1
fold increase value (ratio treated/solvent revertant numbers) ([4]; Range finding, 3.9 µg/plate): 1.1
fold increase value (ratio treated/solvent revertant numbers) ([4]; Range finding, 7.81 µg/plate): 1.2
fold increase value (ratio treated/solvent revertant numbers) ([4]; Range finding, 15.63 µg/plate): 0.9
fold increase value (ratio treated/solvent revertant numbers) ([4]; Range finding, 31.25 µg/plate): 1.0
fold increase value (ratio treated/solvent revertant numbers) ([4]; Range finding, 62.5 µg/plate): 1.0
fold increase value (ratio treated/solvent revertant numbers) ([4]; Range finding, 125 µg/plate): 1.0
fold increase value (ratio treated/solvent revertant numbers) ([4]; Range finding, 250 µg/plate): 1.0
fold increase value (ratio treated/solvent revertant numbers) ([4]; Range finding, 500 µg/plate): 1.2
fold increase value (ratio treated/solvent revertant numbers) ([4]; Range finding, 1000 µg/plate): 0.7
tolerability ([5]; NHP, 50 mg/kg/day for five consecutive days): tolerated with limited clinical signs
toxicity finding ([5]; NHP, 75 mg/kg/day oral (Phase I, incremental doses)): associated with mortality and severe CNS-related clinical signs
AUC(0-t) [5, 8]: 0.896 ± 0.132 µg·h/mL
Cmax [5, 8]: 0.0701 ± 0.00368 µg/mL
Tmax [5, 8]: 1.25 ± 1.06 h
MTD at 5 days ([5]; both sexes, cynomolgus monkey, in vivo, NHP, 5-day oral, read-out: maximum tolerated dose (MTD)): 50 mg/kg/day
half-life ([5]; both sexes, cynomolgus monkey, Mean ± SD of male and female NHP): 14.9 ± 10.3 h
half-life ([5]; cynomolgus monkey, Female NHP): 22.2 h
half-life ([5]; cynomolgus monkey, Male NHP): 7.66 h
AUC(0-t) [5, 9]: 0.989 µg·h/mL
Cmax [5, 9]: 0.0727 µg/mL
Tmax [5, 9]: 0.5 h
AUC(0-t) [5, 10]: 0.802 µg·h/mL
Cmax [5, 10]: 0.0675 µg/mL
Tmax [5, 10]: 2 h
IC50 [6]: 14.4 nM
inhibition of beta-hematin formation [7]: able to inhibit the formation of beta-hematin
